Molecular target: T1, hPFK-P (Homo sapiens, UniProt Q01813)
T1 construct: made in house; host or cells: PFK-deficient Saccharomyces cerevisiae
T1 sequence (Q01813 1-784): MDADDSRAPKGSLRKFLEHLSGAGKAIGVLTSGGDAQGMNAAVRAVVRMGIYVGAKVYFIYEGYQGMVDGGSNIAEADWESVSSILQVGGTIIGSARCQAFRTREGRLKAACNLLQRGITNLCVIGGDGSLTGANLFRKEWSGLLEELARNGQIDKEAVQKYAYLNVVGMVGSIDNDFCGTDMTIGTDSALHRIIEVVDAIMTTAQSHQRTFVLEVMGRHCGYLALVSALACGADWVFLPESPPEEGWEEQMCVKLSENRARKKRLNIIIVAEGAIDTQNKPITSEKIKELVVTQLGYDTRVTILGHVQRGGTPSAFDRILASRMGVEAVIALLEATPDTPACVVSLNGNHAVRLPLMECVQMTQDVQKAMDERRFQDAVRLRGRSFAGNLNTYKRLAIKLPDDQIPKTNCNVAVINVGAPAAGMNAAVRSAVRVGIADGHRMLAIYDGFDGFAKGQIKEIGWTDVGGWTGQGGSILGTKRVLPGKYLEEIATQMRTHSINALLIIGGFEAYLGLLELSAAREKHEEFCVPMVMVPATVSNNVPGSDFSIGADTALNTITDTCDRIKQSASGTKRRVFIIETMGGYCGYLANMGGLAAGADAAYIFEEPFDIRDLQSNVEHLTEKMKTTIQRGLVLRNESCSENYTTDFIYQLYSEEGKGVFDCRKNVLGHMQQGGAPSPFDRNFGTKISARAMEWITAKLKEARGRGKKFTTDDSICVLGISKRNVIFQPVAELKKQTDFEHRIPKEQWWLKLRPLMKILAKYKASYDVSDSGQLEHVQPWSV
Assay: ALDO/G3PDH/TIM linked enzyme assay, human PFK-P
Format: biochemical
Settings: aldolase/TIM linked assay, 25 °C; highest concentration 100 µM
Method: Enzyme activity was measured using an aldolase/TIM linked assay at 25 °C. […] Experiments were carried out in duplicate. Data are presented as mean values ± standard deviation. […] Source data are provided as a Source Data File. b Kill time of CTCB-405 compared with existing HAT drugs in the clinic. […] Over 99% of trypanosomes were killed in under 30 min compared with much slower killing rates for the other drugs. The points on the graph for CTCB-405 were determined from two independent biological replicate experiments with each time point measured twice (using duplicate technical replicates). The ESD for each point on the graph is between 0.7 and 1.4%. For drugs in clinical use each point on the graph is the average of two technical replicates from one experiment (with a maximum difference of 7.8% for any of the points). Source data are provided as a Source Data File.
In the PFK/PYK/LDH assay, the linked PYK activity acts to convert the ADP produced by PFK back to ATP. As ATP is an inhibitor of human PFK (but not TbPFK) at concentrations higher than ~0.5 mM the regeneration of ATP is likely to affect the assay readout. […] TIM interconverts GA3P and DHAP, and DHAP is reduced to glycerol 3-phosphate by G3PD, alongside the oxidation of NADH to NAD^+, which was measured by observing the change in UV absorbance at 340 nm for 10 minutes at 25° C using a Spectramax© M5 Multimode plate reader. […]

SMILES: CN(C)CCn1ccc2c(ccn2Cc2ccc(Cl)c(Cl)c2)c1=O [CTCB-405, 1-[(3,4-Dichlorophenyl)methyl]-5-[2-(dimethylamino)ethyl] pyrrolo[3,2-c]pyridin-4-one]
- inhibition of hPFK-P: no significant inhibition
